Assay results: publication PMC10771590, “Pathway crosstalk between the central metabolic and heme biosynthetic pathways in Phanerochaete chrysosporium” (Applied Microbiology and Biotechnology, 2024)
Where two headings read alike, the source gives them in different places.

Key:
pig CS = biological target: T1, pig CS (Sus scrofa, UniProt P00889); experiment: Inhibitory effect of hemin on pig CS (SsCS) reaction; assay type: biochemical; conditions: 0–5.7 µM hemin, incubated 0 or 60 min at 4 °C (Supplemental Fig. S2)
T1 sequence (P00889 28-464): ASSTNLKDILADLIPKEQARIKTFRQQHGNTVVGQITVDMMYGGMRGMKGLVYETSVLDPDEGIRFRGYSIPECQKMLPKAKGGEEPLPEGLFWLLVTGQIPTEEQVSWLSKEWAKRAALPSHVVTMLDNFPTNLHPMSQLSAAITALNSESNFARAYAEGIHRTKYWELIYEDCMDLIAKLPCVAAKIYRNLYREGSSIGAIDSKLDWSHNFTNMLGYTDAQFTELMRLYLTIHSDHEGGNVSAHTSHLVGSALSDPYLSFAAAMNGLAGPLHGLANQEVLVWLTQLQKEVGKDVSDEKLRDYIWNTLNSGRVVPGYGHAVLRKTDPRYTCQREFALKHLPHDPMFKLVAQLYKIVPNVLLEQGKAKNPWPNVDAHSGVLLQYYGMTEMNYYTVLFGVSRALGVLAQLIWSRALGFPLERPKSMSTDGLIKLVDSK
Source text: One heme-responsive-motif (HRM) was found in PcCS, which could be a possible heme-binding site (Lathrop and Timko [1993]; Zhang and Guarente [1995]; Ishikawa et al. [2005]; Yamanaka et al. [2003]). From the alignment analysis, only certain fungi contain HRM (CP motif) in their CSs (Supplemental Fig. S1). No mammalian CS contains HRM (Supplemental Fig. S1). […] Furthermore, the His residue corresponding to His^347 in PcCS was conserved in either mammalian or fungal CSs. Combining all the data, the heme-binding site is concluded to be His^347 of PcCS.
Concentration of hemin (nM)
Figure S2 Inhibitory effect of hemin on SsCS reaction. Reaction mixtures containing
1.5 nM SsCS, 40 mM Tris/HCl (pH 8.5) and 0, 0.5, 1.2 and 5.7 µM hemin were incubated […]

[1] = biological target: T2, recombinant PcGAPDH (rPcGAPDH) (Phanerodontia chrysosporium, UniProt Q01982); experiment: GAPDH assay and steady-state kinetic analysis; assay type: biochemical, Phanerochaete chrysosporium; conditions: rPcGAPDH
T2 construct: 6xHis-tag (pET-30) (cleaved yes); made in house; host or cells: E. coli BL21(DE3)pLysS
Experimental: GAPDH assay was performed as previously described (Campanale et al. [2003]). For steady-state kinetic analysis, the reaction mixture (1 ml) contained 40 mM phosphate (pH 7.6), 5.2 μg recombinant PcGAPDH (rPcGAPDH), 40 mM triethanolamine, 5 mM NAD^+, and 0.6–2 mM glyceraldehyde 3-phosphate (GAP3). Reactions were monitored by the increase in absorbance at 340 nm (ε 6220 M^–1 cm^–1) for 1 min, and initial velocities were determined. Inhibitory experiments were done in the presence of 0–2.5 μM hemin. To examine the effect of hemin on GAPDH kinetics, PcGAPDH was incubated with either buffer (control) or hemin for 5 min prior to initiating the reaction. Kinetic parameters were determined from Lineweaver–Burk plots, and Ki values were determined from the secondary plot of each slope of the Lineweaver–Burk plots. Immediately prior to use, hemin was dissolved at 10 mM in 0.1 M NaOH and diluted with 40 mM Tris–HCl (pH 7.5).
Fig. 2 Heterologous expression of PcGAPDH and inhibitory effect of hemin on GAPDH reaction. A M, molecular weight marker; lane 1, rPcGAPDH-His-tag; lane 2, His-tag-cleaved rPcGAPDH. B Reaction mixtures containing 2.5 nM rPcGAPDH, 40 mM phosphate (pH 7.6), 40 mM triethanolamine, 5 mM NAD^+, and 0.6–2 mM GAP3. […] Inset: secondary plots of each slope of Lineweaver–Burk plots against the concentration of hemin for determining inhibition constants. C Reaction mixtures containing 2.5 nM rPcGAPDH, 40 mM phosphate (pH 7.6), 40 mM triethanolamine, 5 mM NAD^+, and 0.6 mM GAP3. Reactions were started by adding substrates followed by 5-min incubation with either buffer or 1 μM inhibitor (hemin or protoporphyrin IX, PPIX). […] All experiments were performed in triplicate. Bars indicated as mean values ± standard deviation (error bars)

[2] = biological target: T3, rPcCS (mitochondrial citrate synthase) (Phanerodontia chrysosporium, UniProt Q0EAA7); experiment: CS assay (DTNB method) and steady-state kinetic analysis; assay type: biochemical, Phanerochaete chrysosporium; conditions: for Ki: 0–2.5 μM hemin
T3 sequence (Q0EAA7 1-446): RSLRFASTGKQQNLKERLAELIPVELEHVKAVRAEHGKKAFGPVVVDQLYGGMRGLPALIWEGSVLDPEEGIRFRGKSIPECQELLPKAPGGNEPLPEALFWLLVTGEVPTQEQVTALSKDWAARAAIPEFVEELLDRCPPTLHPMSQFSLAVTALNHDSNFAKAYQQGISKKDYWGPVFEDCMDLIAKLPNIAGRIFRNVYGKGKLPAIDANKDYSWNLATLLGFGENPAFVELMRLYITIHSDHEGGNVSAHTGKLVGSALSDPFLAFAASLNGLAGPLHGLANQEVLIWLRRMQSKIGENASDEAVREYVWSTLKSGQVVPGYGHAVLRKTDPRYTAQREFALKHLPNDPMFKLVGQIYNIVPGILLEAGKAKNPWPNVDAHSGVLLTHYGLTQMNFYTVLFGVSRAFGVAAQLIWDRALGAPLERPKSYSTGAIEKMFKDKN
Experimental: CS was assayed by the 5, 5′-dithiobis-2-nitrobenzoic acid (DTNB) method, as described previously (Srere et al. [1963]). […] CS catalyzes the reaction of OAA with AcCoA, generating citrate and CoA. Thus, reactions were monitored by the amount of released CoA, which was followed at 412 nm (ε 13 600 M^–1cm^–1) by the formation of 2-nitro-5-mercaptobenzoic acid, via the reaction of CoA with DTNB. Reactions were monitored for 1 min, and initial velocity was determined. […] Inhibition studies were carried out in the presence of 0–2.5 μM hemin as described above. Kinetic parameters were determined from Lineweaver–Burk plots, and Ki values were determined from the secondary plot of the slopes of the Lineweaver–Burk plots. Hemin and OAA solutions were prepared immediately prior to use.
Fig. 5 Inhibitory effect of hemin on PcCS reaction. […] Reaction mixtures contained 1.5 nM rPcCS, 40 mM Tris-HCl (pH 8.5), and 120 μM DTNB. Fixed substrate was added at 12 μM and variable substrate at 3–12 μM. […] Insets: secondary plots of each slope of Lineweaver–Burk plots against the concentration of hemin for determining inhibition constants.

T2 sequence (Q01982 whole entry): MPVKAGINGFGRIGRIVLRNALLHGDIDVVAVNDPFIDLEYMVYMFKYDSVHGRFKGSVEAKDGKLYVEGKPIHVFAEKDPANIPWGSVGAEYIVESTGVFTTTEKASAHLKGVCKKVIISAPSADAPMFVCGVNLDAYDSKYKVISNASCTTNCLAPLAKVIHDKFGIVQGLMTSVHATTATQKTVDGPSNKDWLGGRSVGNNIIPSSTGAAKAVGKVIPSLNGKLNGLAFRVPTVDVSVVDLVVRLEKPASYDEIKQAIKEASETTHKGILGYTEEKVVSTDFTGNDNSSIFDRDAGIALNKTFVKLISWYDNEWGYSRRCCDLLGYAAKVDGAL

C=CC1=C(C)c2cc3[nH]c(cc4nc(cc5[nH]c(cc1n2)c(C)c5CCC(=O)O)C(CCC(=O)O)=C4C)c(C)c3C=C.[Fe+3] [hemin]
effect on pig CS activity (pig CS): inhibited | inhibitory pattern (steady-state analysis) ([1]; GAP3 as variable substrate): mixed type | Ki ([1]; pH 7.6, 5 mM NAD+, 0.6–2 mM GAP3, 0–2.5 μM hemin, read-out: Ki (inhibition constant from secondary plot)): 1 µM | inhibitory effect relative to reported inhibitors of other eukaryotic CSs ([2]; hemin on PcCS versus inhibition constants larger than 0.1 mM): 10 times | mode of inhibition for AcCoA ([2]; rPcCS, double-reciprocal plots): competitive inhibitor | mode of inhibition for OAA ([2]; rPcCS, double-reciprocal plots): non-competitive inhibitor | Ki ([2]; read-out: Ki AcCoA, rPcCS, pH 8.5, AcCoA as variable substrate): 5.8 µM | Ki ([2]; read-out: Ki OAA, rPcCS, pH 8.5, OAA as variable substrate): 8.7 µM
